Data published in ChEMBL document CHEMBL1201862, “PubChem BioAssay data set” (2004).
Active and inactive are the calls of the source.

What was measured:
SN12K1 = assay: cells; format: functional; settings: Homo sapiens
P388/ADR = assay: cells; format: functional; settings: Mus musculus
P388 = assay: cells; format: functional; settings: Mus musculus
[1] = inhibitors of HIV Env-driven cell fusion, dose response, cherry-pick (AID 652057); format: functional, cell-based
[2] = microbe, parasite or virus in culture; format: functional; settings: Mycobacterium tuberculosis
H9c2 = assay: cells; format: functional, cell-based; settings: Rattus norvegicus, H9c2, Myocardium
cells = format: functional
Streptococcus = assay: Group A Streptococcus viability loss, dose response, counter-screen for streptokinase expression inhibitor project, luminescence, BacTiterGlo (AID 1915); format: functional, organism-based;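 note: potency for reduction of bacterial viability or growth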
[3] = HEp-2 cell cytotoxicity, dose response, cytotoxicity control for RSV inhibitor project, HTS (AID 2410); format: functional; settings: human respiratory syncytial virus
[4] = tested on: Streptococcus sp. 'group A'; assay: growth inhibition of control SK(-) GAS strain, dose response, counter-screen for streptokinase expression inhibitor project, luminescence, kanamycin, BacTiterGlo, confirmation (AID 1900); format: functional, organism-based
Genome polyprotein = Genome polyprotein (dengue virus type 2, UniProt P29990); assay: Dengue-2 NS5 methyltransferase inhibitors, primary screen, biochemical, confirmation dose response (AID 588689); format: functional
Sequence of Genome polyprotein (P29990 2492-3391 limits assumed): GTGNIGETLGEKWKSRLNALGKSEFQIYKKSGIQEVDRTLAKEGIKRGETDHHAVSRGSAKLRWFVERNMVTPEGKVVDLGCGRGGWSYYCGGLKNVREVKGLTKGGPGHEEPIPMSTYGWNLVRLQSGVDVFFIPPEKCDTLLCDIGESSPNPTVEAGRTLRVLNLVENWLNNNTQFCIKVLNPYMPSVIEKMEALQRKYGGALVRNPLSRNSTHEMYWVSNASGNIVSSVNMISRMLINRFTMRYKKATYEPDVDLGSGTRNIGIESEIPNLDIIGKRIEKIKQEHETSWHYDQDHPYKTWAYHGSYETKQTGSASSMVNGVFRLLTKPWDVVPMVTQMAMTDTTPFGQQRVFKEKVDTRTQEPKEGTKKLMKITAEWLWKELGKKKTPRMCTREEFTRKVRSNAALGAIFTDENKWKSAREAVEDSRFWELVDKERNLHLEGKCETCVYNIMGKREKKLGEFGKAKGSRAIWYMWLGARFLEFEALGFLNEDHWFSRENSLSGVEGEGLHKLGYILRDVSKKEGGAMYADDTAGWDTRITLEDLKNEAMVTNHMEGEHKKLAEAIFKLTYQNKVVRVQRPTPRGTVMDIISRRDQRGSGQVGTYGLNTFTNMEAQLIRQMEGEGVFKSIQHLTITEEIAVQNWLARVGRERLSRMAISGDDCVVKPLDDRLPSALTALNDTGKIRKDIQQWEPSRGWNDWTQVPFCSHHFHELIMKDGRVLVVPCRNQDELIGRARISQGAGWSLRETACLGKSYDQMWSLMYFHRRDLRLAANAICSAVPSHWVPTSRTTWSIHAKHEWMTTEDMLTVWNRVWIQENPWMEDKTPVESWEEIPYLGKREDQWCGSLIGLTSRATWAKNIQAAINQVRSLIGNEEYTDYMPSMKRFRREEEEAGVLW

[5] = target: FAD-linked sulfhydryl oxidase ALR (Homo sapiens, UniProt P55789); assay: inhibitors of human ALR sulfhydryl oxidase, dose response, biochemical, H2O2 detection, luminescence, cherry-pick (AID 493248)
Sequence of FAD-linked sulfhydryl oxidase ALR (P55789 whole entry): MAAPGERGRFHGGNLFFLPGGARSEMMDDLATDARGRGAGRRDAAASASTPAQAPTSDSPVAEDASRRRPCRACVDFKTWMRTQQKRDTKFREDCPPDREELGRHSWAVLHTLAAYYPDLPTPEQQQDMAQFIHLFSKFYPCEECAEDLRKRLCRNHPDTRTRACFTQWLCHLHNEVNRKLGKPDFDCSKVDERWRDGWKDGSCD

[6] = target: T1, Calpain-2 catalytic subunit (Sus scrofa, UniProt P43367); assay: pig calpain II inhibitor potency, dose response, biochemical, fluorogenic peptide substrate (AID 1420); format: functional
T1 sequence (P43367 whole entry): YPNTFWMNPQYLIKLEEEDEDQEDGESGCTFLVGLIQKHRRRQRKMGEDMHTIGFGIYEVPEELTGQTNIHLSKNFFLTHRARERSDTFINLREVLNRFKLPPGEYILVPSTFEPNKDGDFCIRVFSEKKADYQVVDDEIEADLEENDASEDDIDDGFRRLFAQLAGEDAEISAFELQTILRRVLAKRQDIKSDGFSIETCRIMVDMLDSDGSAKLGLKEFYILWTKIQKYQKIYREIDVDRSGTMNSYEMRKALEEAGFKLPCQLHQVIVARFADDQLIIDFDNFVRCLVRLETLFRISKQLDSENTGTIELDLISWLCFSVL

Leucine aminopeptidase = target: T2, Leucine aminopeptidase (Plasmodium falciparum 3D7, UniProt Q8IL11); assay: P. falciparum M17LAP inhibitors, primary screen, biochemical, fluorogenic H-Leu-NHMec substrate, 1536-well (AID 1619); format: functional
T2 sequence (Q8IL11 whole entry): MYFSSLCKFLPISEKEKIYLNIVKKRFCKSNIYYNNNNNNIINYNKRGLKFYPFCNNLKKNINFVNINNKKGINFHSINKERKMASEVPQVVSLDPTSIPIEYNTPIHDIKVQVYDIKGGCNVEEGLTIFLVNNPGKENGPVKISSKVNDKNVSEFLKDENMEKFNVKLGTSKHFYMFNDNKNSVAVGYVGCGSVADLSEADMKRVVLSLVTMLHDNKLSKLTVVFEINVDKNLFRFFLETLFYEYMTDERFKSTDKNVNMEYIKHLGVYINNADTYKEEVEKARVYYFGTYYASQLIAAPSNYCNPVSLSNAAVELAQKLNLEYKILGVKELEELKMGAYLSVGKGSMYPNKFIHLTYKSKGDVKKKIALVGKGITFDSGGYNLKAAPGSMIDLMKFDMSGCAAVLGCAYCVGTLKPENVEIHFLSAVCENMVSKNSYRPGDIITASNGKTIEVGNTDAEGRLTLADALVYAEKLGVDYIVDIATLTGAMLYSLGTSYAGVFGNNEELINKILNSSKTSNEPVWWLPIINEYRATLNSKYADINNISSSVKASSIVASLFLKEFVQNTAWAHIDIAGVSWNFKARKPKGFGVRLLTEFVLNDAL

[7] = target: Glucose-6-phosphate 1-dehydrogenase (Homo sapiens, UniProt P11413); assay: human G6PD enzyme inhibitors, dose response, selectivity assay for P. falciparum G6PD inhibitor project, biochemical, fluorescence (AID 504792); format: functional
Sequence of Glucose-6-phosphate 1-dehydrogenase (P11413 whole entry): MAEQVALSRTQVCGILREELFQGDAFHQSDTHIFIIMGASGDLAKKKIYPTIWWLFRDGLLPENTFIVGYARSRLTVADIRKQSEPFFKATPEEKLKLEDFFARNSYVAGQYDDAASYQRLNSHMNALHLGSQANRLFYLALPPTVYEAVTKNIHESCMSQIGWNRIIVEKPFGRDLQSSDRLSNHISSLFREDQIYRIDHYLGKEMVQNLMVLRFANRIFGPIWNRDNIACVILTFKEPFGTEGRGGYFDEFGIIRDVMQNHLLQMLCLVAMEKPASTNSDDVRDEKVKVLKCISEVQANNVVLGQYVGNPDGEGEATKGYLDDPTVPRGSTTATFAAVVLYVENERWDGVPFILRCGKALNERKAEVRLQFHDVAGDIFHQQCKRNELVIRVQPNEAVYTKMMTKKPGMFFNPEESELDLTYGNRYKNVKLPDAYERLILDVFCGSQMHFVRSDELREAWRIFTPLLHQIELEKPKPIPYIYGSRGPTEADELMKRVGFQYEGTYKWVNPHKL

Protein skinhead-1 = target: T3, Protein skinhead-1 (Caenorhabditis elegans, UniProt P34707); format: functional
T3 sequence (P34707 whole entry): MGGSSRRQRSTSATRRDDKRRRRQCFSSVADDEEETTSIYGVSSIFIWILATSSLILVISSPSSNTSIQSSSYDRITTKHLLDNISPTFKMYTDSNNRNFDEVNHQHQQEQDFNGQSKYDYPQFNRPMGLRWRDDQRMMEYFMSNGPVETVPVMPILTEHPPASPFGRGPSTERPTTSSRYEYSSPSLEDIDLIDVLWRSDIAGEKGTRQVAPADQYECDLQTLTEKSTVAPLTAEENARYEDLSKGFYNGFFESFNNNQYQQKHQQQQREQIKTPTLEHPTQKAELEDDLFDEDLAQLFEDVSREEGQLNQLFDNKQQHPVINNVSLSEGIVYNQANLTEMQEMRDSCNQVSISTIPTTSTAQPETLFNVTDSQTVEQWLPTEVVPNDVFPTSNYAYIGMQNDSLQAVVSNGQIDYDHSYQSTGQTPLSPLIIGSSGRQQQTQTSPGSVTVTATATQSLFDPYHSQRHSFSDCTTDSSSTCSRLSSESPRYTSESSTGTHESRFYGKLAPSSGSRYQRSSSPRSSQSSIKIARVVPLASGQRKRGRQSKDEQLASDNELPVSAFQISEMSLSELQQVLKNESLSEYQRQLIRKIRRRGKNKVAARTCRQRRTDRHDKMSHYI

[8] = Luminescence Cell-Based Dose Retest to Confirm Inhibitors of Cancer Stem Cells. [Related pubchem assays (depositor defined):AID2717, AID2721]; format: functional; settings: Homo sapiens
INS1 = assay: beta cell apoptosis inhibitors, cytokine rescue, dose response, luminescence, retest (AID 449756); format: functional, cell-based; settings: Rattus norvegicus;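 note: cell death triggered by IL-1 beta plus TNF-alpha plus IFN-gamma mixture; protective hits raise ATP signal compared with cytokine alone wells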
Cytochrome P450 2C9 = Cytochrome P450 2C9 (Homo sapiens, UniProt P11712)
Sequence of Cytochrome P450 2C9 (P11712 whole entry): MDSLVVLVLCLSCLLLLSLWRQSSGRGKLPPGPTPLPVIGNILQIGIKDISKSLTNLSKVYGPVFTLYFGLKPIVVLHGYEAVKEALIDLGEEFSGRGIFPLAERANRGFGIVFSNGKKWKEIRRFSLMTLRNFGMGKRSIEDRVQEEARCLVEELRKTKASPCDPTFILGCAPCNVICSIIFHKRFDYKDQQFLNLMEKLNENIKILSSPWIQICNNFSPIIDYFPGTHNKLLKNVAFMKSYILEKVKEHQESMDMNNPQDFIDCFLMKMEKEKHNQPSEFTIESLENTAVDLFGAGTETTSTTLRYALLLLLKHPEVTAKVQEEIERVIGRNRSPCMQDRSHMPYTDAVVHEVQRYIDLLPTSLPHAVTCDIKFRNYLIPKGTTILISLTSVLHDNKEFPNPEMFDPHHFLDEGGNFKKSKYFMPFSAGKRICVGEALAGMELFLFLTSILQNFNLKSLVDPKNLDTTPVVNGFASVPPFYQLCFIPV

Cytochrome P450 3A4 = Cytochrome P450 3A4 (Homo sapiens, UniProt P08684);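 note: CYP3A4 tested as one member of a cytochrome P450 panel screen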
Sequence of Cytochrome P450 3A4 (P08684 whole entry): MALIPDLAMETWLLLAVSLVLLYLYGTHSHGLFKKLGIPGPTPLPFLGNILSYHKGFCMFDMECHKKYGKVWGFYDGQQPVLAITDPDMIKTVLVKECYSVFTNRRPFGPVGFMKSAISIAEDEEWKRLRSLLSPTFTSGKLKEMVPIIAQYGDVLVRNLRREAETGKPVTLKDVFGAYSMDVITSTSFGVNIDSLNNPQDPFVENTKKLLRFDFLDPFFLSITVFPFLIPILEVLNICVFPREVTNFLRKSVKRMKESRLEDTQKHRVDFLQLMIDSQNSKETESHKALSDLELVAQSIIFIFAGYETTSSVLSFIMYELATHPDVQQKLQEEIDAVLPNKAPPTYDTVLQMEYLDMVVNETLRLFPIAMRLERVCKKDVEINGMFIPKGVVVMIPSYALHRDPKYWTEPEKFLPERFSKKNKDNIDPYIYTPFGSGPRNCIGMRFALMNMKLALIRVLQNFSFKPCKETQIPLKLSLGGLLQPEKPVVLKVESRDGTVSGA

[9] = HepG2 cell cytotoxicity, dose response, cytotoxicity control for Shn3 inhibitor project, CellTiter-Glo, cherry-picked (AID 624134); format: functional, cell-based
[10] = Shn3 3'UTR reporter inhibitors, dose response, cell-based, Clone20 osteoblasts, firefly luciferase, cherry-picked (AID 624132); format: functional;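 note: firefly luciferase luminescence from reporter carrying the Shn3 3'UTR in osteoblasts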
[11] = control 3'UTR Renilla luciferase suppression, dose response, counter-screen for Shn3 inhibitor project, cell-based, Clone20-Shn3RL, cherry-picked (AID 624133); format: functional

## COc1cc(C[C@H]2c3cc(OC)c(OC)cc3CCN2C)c(Oc2cc3c(cc2OC)-c2c(OC)c(OC)cc4c2[C@H](C3)N(C)CC4)cc1OC [THALICARPINE]
SN12K1
  GI50: 7.93 µM (inactive)
P388/ADR
  GI50: 8.51 µM (inactive)
P388
  GI50: 4.24 µM (inactive)

## COc1ccc(C2CC(c3sc(Nc4ccc(C)cc4)nc3C)=NN2)cc1 (stereo not drawn)
SN12K1
  GI50: 14.9 µM (inactive)
P388/ADR
  GI50: 4.99 µM (inactive)
P388
  GI50: 6.79 µM (inactive)

## C[C@@H]1CN([C@@H](C)CO)C(=O)Cc2cc(NC(=O)c3ccncc3)ccc2O[C@H]1CN(C)Cc1ccc(Cl)c(Cl)c1
[1]
  AC50: 30.4 µM (active)

## CC1Nc2ncnc(N3CCN(c4ccccc4)CC3)c2N(Cc2ccc(Br)cc2)C1=O (stereo not drawn)
[2]
  CC50: > 40 µM (active)
H9c2
  IC50: > 79 µM (inactive)

## Cc1ccc(-c2cc(C(F)(F)F)n3nc(C(=O)NCCCn4ccnc4)cc3n2)cc1C
[2]
  CC50: > 40 µM (active)
cells
  IC50: > 50 µM (active)

## Cc1cc(C)c2ccc(NN)nc2c1O
Streptococcus
  EC50: 6.5 µM (active)
[2]
  CC50: > 40 µM (active)
[3]
  CC50: 36 µM (active)
[4]
  EC50: 3.27 µM (active)
H9c2
  IC50: 5.06 µM (active)

## C=C1C(=O)C[C@@]23CCC[C@@]12CC(OCOC)C3 (stereo partly drawn)
SN12K1
  GI50: 1.84 µM (inactive)
P388/ADR
  GI50: 0.531 µM (active)
P388
  GI50: 0.431 µM (active)

## COC(=O)c1c(C)c2c(C)cc3ccccn3c-2c1C(=O)OC
Genome polyprotein
  IC50: > 100 µM (active)

## Nc1ccc(-c2ccc(N)c(C(=O)O)c2)cc1C(=O)O
[5]
  AC50: 2.38 µM (active)

## O=C(OCC(=O)N1CCCCC1)c1cc2ccccc2cc1O
cells
  IC50: 5.15 µM (active)

## O=NN(CCCl)C(=O)N[C@H]1CC[C@H](C(=O)O)CC1
SN12K1
  GI50: > 100 µM (inactive)
P388/ADR
  GI50: 7.1 µM (inactive)
P388
  GI50: 4.86 µM (inactive)

## C=C1CC(OC)(C(O)C(=O)N[C@H]2OCO[C@H]3C2O[C@H](C[C@@H](COC)OC)C(C)(C)C3OC)O[C@H](C)[C@@H]1C (stereo partly drawn)
SN12K1
  GI50: < 0.00482 µM (active)
P388/ADR
  GI50: < 0.00482 µM (active)
P388
  GI50: < 0.00482 µM (active)

## Nc1n[nH]c(N)c1N=Nc1ccc(F)cc1
[6]
  IC50: 30.8 µM (not active)
Leucine aminopeptidase
  IC50: 8.11 µM (active)
[5]
  AC50: 2.29 µM (active)

## CN1C(=O)/C(=C/c2ccco2)S/C1=N/c1cccc(C(=O)O)c1
Leucine aminopeptidase
  IC50: 50.6 µM (active)

## Cc1cc(NS(=O)(=O)c2ccc(NC(=O)c3cnc4scc(C)n4c3=O)cc2)nc(C)n1
Leucine aminopeptidase
  IC50: 23.1 µM (active)

## CCOC(=O)Cn1c(=S)[nH]c2c(oc3ccc(Cl)cc32)c1=O
Leucine aminopeptidase
  IC50: 19.5 µM (active)

## COc1cc(/C=N/Nc2ccc(Cl)nn2)cc(OC)c1O
[5]
  AC50: 0.005 µM (active)

## O=C(CN1C(=O)C2C3C=CC(C3)C2C1=O)OCC(=O)c1ccc([N+](=O)[O-])cc1 (stereo not drawn)
[7]
  IC50: > 80 µM (inactive)

## O=C(NCc1cccs1)c1cc(-c2ccc(O)cc2)on1
cells
  IC50: 45 µM (active)

## Cc1ccc(S(=O)(=O)SC/C=C/CSS(=O)(=O)c2ccc(C)cc2)cc1
[7]
  IC50: 59.5 µM (inactive)

## O=C(NN/C=C1\C(=O)N(Cc2ccccc2)C(=O)c2ccccc21)c1cccnc1
[5]
  AC50: 3.35 µM (active)

## O=S(=O)(Nc1ccc(C(F)(F)F)cc1)c1c[nH]cn1
Leucine aminopeptidase
  IC50: 28.3 µM (active)
Protein skinhead-1
  IC50: > 100 µM (inactive)

## CCCNC(=O)COC(=O)c1cc2c(=O)n3ccccc3nc2s1
cells
  IC50: 39.2 µM (active)

## CCCOc1ccc2c(c1)C(=NN=C(N)N)c1cc(OCCC)ccc1-2
[2]
  CC50: 12.2 µM (active)
[8]
  AC50: 3.33 µM (active)

## COc1c(OC(C)=O)ccc(/C=N\NC(=O)c2ccc(Br)cc2)c1[N+](=O)[O-]
Genome polyprotein
  IC50: 96.5 µM (active)

## Clc1ccc(-c2[nH]ncc2N=Nc2ccccc2)cc1
INS1
  AC50: > 120 µM (inactive)
[2]
  CC50: > 40 µM (active)

## NC(CN(O)N=O)C(=O)O (stereo not drawn)
SN12K1
  GI50: 0.792 µM (active)
P388/ADR
  GI50: 8.45 µM (inactive)
P388
  GI50: 16.5 µM (inactive)

## NC(=O)c1ncn2c1NC(=O)CC2
SN12K1
  GI50: > 100 µM (inactive)
P388/ADR
  GI50: > 100 µM (inactive)
P388
  GI50: > 31.6 µM (inactive)

## Cc1ccc(CSC2=NCCN2C(=O)c2ccco2)cc1
[5]
  AC50: 2.85 µM (active)

## COc1cc(NS(C)(=O)=O)ccc1Nc1c2ccccc2nc2ccccc12 [AMSACRINE]
SN12K1
  GI50: 0.106 µM (active)
Cytochrome P450 2C9
  AC50: inconclusive
P388/ADR
  GI50: 0.265 µM (active)
Cytochrome P450 3A4
  AC50: 20 µM (inconclusive)
P388
  GI50: 0.0318 µM (active)

## CCc1nc(N2CCN(C(C)=O)CC2)c2c3c(sc2n1)CC(C(C)(C)C)CC3 (stereo not drawn)
[9]
  AC50: 58.6 µM (active)
INS1
  AC50: 3.36 µM (active)
[2]
  CC50: > 40 µM (active)
[10]
  AC50: 6.76 µM (active)
[11]
  AC50: 11.3 µM (active)

## [O-]/[N+](=C/c1cccnc1)c1ccc(Br)cc1
[7]
  IC50: 28.2 µM (inactive)

## CSc1ncc(C(=O)Nc2ccc(Br)cn2)c(C)n1
[2]
  CC50: > 40 µM (active)

## Cc1nc(-c2ccc(NC(=O)CC(C)C)cc2)cs1
[5]
  AC50: 2.38 µM (active)

## Cc1cc(Nc2[nH]nc(N)c2C#N)ccc1F
[5]
  AC50: 2.22 µM (active)
